Columns and labels:
[1] = tested on: M1 macrophages and M2 macrophages differentiated from mouse bone marrow cells; experiment: Subtype identification by staining and flow cytometry of M1 and M2 macrophages differentiated from mouse bone marrow cells; assay type: cell-based, Balb/c mouse
Summary of the method: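 Balb/c mouse bone marrow cells were differentiated to macrophages with 50 ng/mL M-CSF over two 3–4-day periods, then polarized for 3 days to M1 (interferon-γ plus polyliposaccharide) or M2 (IL-4). Live cells (aqua dye-negative) were analysed by flow cytometry; resolution R = |FM1−FM2|/(WM1+WM2) from histogram peak positions and widths indexed subtype discrimination.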

[2] = tested on: M1 macrophages and M2 macrophages differentiated from THP-1 cells; experiment: Identification of macrophage subtypes differentiated from human cell line THP-1; assay type: cell-based
Method: The fluorescent signals derived from the compounds (3), (4), (6), (7), (9), (11) to (13), (15), (17), (19) to (26), (28), (30) to (33), (35), (36), (38), (42) to (45), (48) to (62), (65), (67), (74) to (76), (82), (83) and (85) and the comparative compounds (1) and (2) were measured in channels suitable to the respective compounds. Histograms were prepared by plotting fluorescence intensities obtained in the respective channels on the abscissa and plotting the numbers of cells at each fluorescence intensity on the ordinate. A difference between a fluorescence intensity (FM1) at a peak top of the histogram of the M1 macrophage and a fluorescence intensity (FM2) at a peak top of the histogram of the M2 macrophage is divided by a sum of a peak width (WM1) of the histogram of the M1 macrophage and a peak width (WM2) of the histogram of the M2 macrophage, so as to obtain a resolution R, which was used as an index of the identification ability for a subtype (see the following expression (1)). Resolution R=|FM1−FM2|/(WM1+WM2) Expression (1)
Based on the thus obtained values of the resolution R, the identification abilities for the subtypes of the compounds (3), (4), (6), (7), (9), (11) to (13), (15), (17), (19) to (26), (28), (30) to (33), (35), (36), (38), (42) to (45), (48) to (62), (65), (67), (74) to (76), (82), (83) and (85) and the comparative compounds (1) and (2) were evaluated as any of A to C according to the following criteria, and if the resolution R was 0.15 or more, the compound was determined to be good in the subtype identification.
The subtypes were identified by using the compound (1) in the same manner as in Example 1 except that the macrophage subtypes differentiated from the mouse bone marrow cells were changed to macrophage subtypes differentiated from a cell line established from human acute monocytic leukemia.
The culture of subtypes was performed with reference to NPL 10. Specifically, THP-1 cells purchased from JCRB Cell Bank of National Institute of Biomedical Innovation, that is, a cell line established from human acute monocytic leukemia, were subcultured several times, and the resultant cells were dispersed to a concentration of 5.0×10^5/mL in an RPMI1640 containing 10% FBS and 1% P/S, and 5.0×10^6 cells were seeded in a 100 mm dish. The monocytes were differentiated into macrophages by incubating the resultant in the presence of 5% CO2 at 37° C. for 2 days with 500 ng of PMA added thereto. After exchanging the medium, by adding 200 ng of interferon-γ and 1 μg of polyliposaccharide (both manufactured by Pepro Tech) to the medium, the cells were differentiated to the subtype M1. Besides, by adding 200 ng of IL-4 and IL-13, the cells were differentiated to the subtype M2. After incubation performed in the presence of 5% CO2 at 37° C. for 24 hours, the resultant was rinsed with PBS, and PBS containing 0.25% trypsin and 1 mM EDTA (ethylenediaminetetraacetic acid) was used for collecting, from the dish, the macrophages having been differentiated to the subtypes M1 and M2.
Specifically, fluorescent signals derived from the compounds (1) (3) (4) (12) and (15) were measured by using the channels which are appropriate for each of the compounds and the identification abilities for the subtypes of the compounds were evaluated based on the values of the resolution R.

[3] = tested on: mixture of the M1 macrophages and the M2 macrophages; experiment: Sorting of subtypes from a mixture of M1 and M2 macrophages with an FACS apparatus; assay type: cell-based, mouse; conditions: compound 1 μM
[4] = fluorescence intensity at peak top of histogram, compound 1 μM, 37° C., 30 minutes

Compound: CCOC(=O)CCN1C(=O)/C(=C\c2ccc3c(c2)C2CCCC2N3CC)SC1=S (stereo not drawn) [compound (1)]
- Resolution ratio R ([1]; R=|FM1−FM2|/(WM1+WM2), compound 1 μM): 1.150
- Peak position of M1 macrophage [1, 4]: 85.8
- Peak position of M2 macrophage [1, 4]: 12.4
- Evaluation of macrophage subtype identification ([1]; rated from resolution R): A (The compound is very good in the subtype identification (namely, the resolution R is 0.5 or more))
- subtype more strongly stained ([1]; two compounds used in combination, each 1 μM): the M1 macrophages are more strongly stained than the M2 macrophages
- Resolution ratio R ([2]; M1 vs M2 macrophages differentiated from THP-1 cells, channel listed per compound (Table 6)): 0.409
- Evaluation of macrophage subtype identification ([2]; M1 vs M2 macrophages differentiated from THP-1 cells, class based on resolution R (Table 6)): B (the compound is good in the subtype identification (namely, the resolution R is 0.15 or more and less than 0.5))
- Peak position of M1 macrophage ([2]; THP-1-derived M1 macrophages, fluorescence intensity peak by flow cytometry in the channel listed per compound (Table 6)): 58.1
- Peak position of M2 macrophage ([2]; THP-1-derived M2 macrophages, fluorescence intensity peak by flow cytometry in the channel listed per compound (Table 6)): 33.4
- Selectivity ([2]; subtype strongly stained, THP-1-derived macrophages (Table 6)): M1
- sorting of identified M1 and M2 macrophages ([3]; FACS apparatus): could be each sorted with an FACS apparatus
- subtype more strongly stained ([3]; mixed M1 and M2 macrophages): stain the M1 macrophages more strongly than the M2 macrophages

From US10041937B2, “Macrophage identification agent, and identification method, sorting method, evaluation method, screening method and kit using the macrophage identifier agent” (CANON KABUSHIKI KAISHA, priority 2013, dated 2018)
